In patent US20240391954A1, “MC4R AGONIST PEPTIDES” (The Regents of the University of Michigan, priority 2021, published 2024):
Like-named read-outs stand apart in the source and are kept apart here. Positions of bridges follow the written chain, without caps; N, C: chain ends. Non-standard residues stand in square brackets, D forms with d. Residues, ends and D or L forms follow the SMILES beside them. dPhe(4-tBu) = CC(C)(C)c1ccc(C[C@@H](N)C(=O)O)cc1; Phe(4-Br) = N[C@@H](Cc1ccc(Br)cc1)C(=O)O; dPhe(4-Br) = N[C@H](Cc1ccc(Br)cc1)C(=O)O; d(αMeF) = C[C@@](N)(Cc1ccccc1)C(=O)O; hCit = NC(=O)NCCCC[C@H](N)C(=O)O; Cit = NC(=O)NCCC[C@H](N)C(=O)O; Nle = CCCC[C@H](N)C(=O)O

Assays:
human MC3R = target: T1, human MC3R (Homo sapiens, UniProt P41968); assay: split-luciferase cAMP sensor assay, agonist mode (measurement window 1), hMC3R; format: cell-based; details: agonist mode; for Emax: read-out: MC3R cAMP % max activation; for EC50: read-out: MC3R cAMP EC50
T1 construct: expressed in transfected cells; host or cells: HEK-293 cells stably expressing the GScAMP22F split-luciferase cAMP sensor (parent reporter line from Promega); MC3R clone generated in-house, G418 selection
T1 sequence (P41968 whole entry): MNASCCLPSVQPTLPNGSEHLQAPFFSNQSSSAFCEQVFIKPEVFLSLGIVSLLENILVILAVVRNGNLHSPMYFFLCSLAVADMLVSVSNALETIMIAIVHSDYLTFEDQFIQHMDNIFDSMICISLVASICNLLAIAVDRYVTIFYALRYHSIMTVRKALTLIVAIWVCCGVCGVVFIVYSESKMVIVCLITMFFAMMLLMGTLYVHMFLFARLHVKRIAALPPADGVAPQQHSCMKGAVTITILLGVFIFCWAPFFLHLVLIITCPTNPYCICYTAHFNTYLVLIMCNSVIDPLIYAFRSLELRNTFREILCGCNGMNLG
Protocol: (§1) The stable cell lines were grown and maintained in selection media consisting of Dulbecco's modified Eagle media (DMEM) with 4.5 g/l D-glucose, and 4 mM L-glutamine (Thermo Fisher Scientific, Waltham, MA), supplemented with 10% fetal bovine serum, 100 units/ml penicillin, 100 μg/ml streptomycin, 2.5 μg/ml amphotericin B, 200 μg/ml hygromycin B (for positive selection of the GScAMP22f luciferase reporter), and Geneticin™ (G418) 700 μg/ml (for MC3R or MC4R selection). Actual serum concentration during the assay is estimated to be about 1%. Cell line identity is routinely verified by qPCR and MC3R-and MC4R-specific oligonucleotides.
(§2) The assay for the determination of the cAMP response in live cells was described previously. […] Cells were seeded at a density of 20,000 cells per well using 384-well poly-D lysine-coated, clear bottom, and black-wall assay plates (Corning Inc. Corning, NJ). Cells were allowed to attach to the plates for 18 to 24 h after which growth media was removed and 20 μl of 4% D-luciferin (Promega) in CO2 independent, serum-free medium (Thermo Fisher Scientific) was added to each well. […] Intracellular cAMP levels were measured using an FDSS 7000EX Functional Drug Screening System (Hamamatsu Photonics, Hamamatsu, Japan) in the Center for Chemical Genomics at the Life Sciences Institute. This instrument allowed the in-line addition of test-peptides and receptor agonists while simultaneously acquiring the luminescence signal from live cells. […] A submaximal forskolin (20 μM) concentration was also included to serve as a normalization reference to account for cell number variations and differences in assay transducer efficiency between cell lines.
(§3) With this set up it was possible to evaluate the direct effect of the test-peptides on the MC3R and MC4R cell lines during measurement window 1, while the antagonist profile in the presence of EC90 α-MSH was determined on measurement window 2. […] EC50 or IC50 potency values were determined by non-linear regression by fitting the data to a sigmoid four-parameter variable slope model using the GraphPad Prism version 8.4 software package (San Diego CA).

human MC4R = target: T2, human MC4R (Homo sapiens, UniProt P32245); assay: split-luciferase cAMP sensor assay, agonist mode (measurement window 1), hMC4R; format: cell-based; details: for Emax / EC50: agonist mode; for Emax: read-out: MC4R cAMP % max activation; for EC50: read-out: MC4R cAMP EC50
T2 construct: host or cells: HEK-293 cells stably expressing the GScAMP22F split-luciferase cAMP sensor and hMC4R, G418 selection
T2 sequence (P32245 whole entry): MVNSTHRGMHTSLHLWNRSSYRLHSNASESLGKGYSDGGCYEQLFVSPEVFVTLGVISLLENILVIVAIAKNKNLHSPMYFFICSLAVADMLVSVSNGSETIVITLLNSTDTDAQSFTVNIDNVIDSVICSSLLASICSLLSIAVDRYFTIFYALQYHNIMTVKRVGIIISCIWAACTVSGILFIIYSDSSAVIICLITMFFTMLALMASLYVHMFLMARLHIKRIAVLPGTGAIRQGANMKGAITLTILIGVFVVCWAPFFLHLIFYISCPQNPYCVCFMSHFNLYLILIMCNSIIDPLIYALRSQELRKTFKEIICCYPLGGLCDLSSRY
Protocol: as §1, §2, §3

[1] = HEK-293 cells stably expressing hMC4R

Compound | Emax (human MC3R; hMC3R stable cell line) [%] | MC4R selectivity vs MC1R (human MC4R) | MC4R selectivity vs MC3R (human MC4R) | Emax (human MC4R; hMC4R stable cell line) [%] | EC50 (human MC4R; hMC4R stable cell line) [nM] | EC50 (human MC3R; hMC3R stable cell line) [nM] | Emax (human MC4R; % maximal activation) [%] | Emax (human MC3R; % maximal activation) [%] | EC50 (human MC4R; [1]) [nM]
CC(=O)N[C@@H](CCCNC(=N)N)C(=O)N[C@H]1CSSC[C@@H](C(N)=O)NC(=O)[C@@H](C)NC(=O)[C@H](CCCNC(=N)N)NC(=O)[C@@H](Cc2ccc(Br)cc2)NC(=O)[C@H](CCCNC(=N)N)NC(=O)[C@@H](C)NC1=O [CTX-1260, Arg-cyclo(Cys-D-Ala-Arg-D-Phe(4-Br)-Arg-D-Ala-Cys)] (Ac-RC[dA]R[dPhe(4-Br)]R[dA]C-NH2; disulfide 2-8) | 13 | 0.01 | 0.05 | 38 | – | – | – | – | –
CCCC[C@H](NC(=O)[C@H](CCCNC(=N)N)NC(C)=O)C(=O)N[C@H]1CSSC[C@@H](C(N)=O)NC(=O)[C@@H](Cc2c[nH]c3ccccc23)NC(=O)[C@H](CCCNC(=N)N)NC(=O)[C@@H](Cc2ccc(Br)cc2)NC(=O)[C@H](Cc2c[nH]cn2)NC1=O [CTX-1231, Arg-Nle-cyclo(Cys-His-D-Phe(4-Br)-Arg-D-Trp-Cys)] (Ac-R[Nle]CH[dPhe(4-Br)]R[dW]C-NH2; disulfide 3-8 (inferred)) | 59 | 0.19 | 3.04 | 64 | 2.3 | – | – | – | –
CC(=O)N[C@@H](CCCNC(=N)N)C(=O)N[C@H]1CSSC[C@@H](C(N)=O)NC(=O)[C@H](Cc2c[nH]c3ccccc23)NC(=O)[C@H](CCCNC(=N)N)NC(=O)[C@@H](Cc2ccc(Br)cc2)NC(=O)[C@@H]2CCCN2C(=O)[C@@H](C)NC1=O [CTX-2204, Arg-cyclo(Cys-D-Ala-Pro-D-Phe(4-Br)-Arg-Trp-Cys)] (Ac-RC[dA]P[dPhe(4-Br)]RWC-NH2; disulfide 2-8 (inferred)) | 0.2 | – | 0.19 | 13 | – | 11 | – | – | –
C[C@H]1NC(=O)[C@@H](NC(=O)[C@H](CCCNC(=N)N)NC(=O)COCCOCCNC(=O)COCCOCCNC(=O)CNC(=O)CCc2ccc(I)cc2)CSSC[C@@H](C(N)=O)NC(=O)[C@@H](Cc2c[nH]c3ccccc23)NC(=O)[C@H](CCCNC(=N)N)NC(=O)[C@@H](Cc2ccc(Br)cc2)NC(=O)[C@H](CCCNC(=N)N)NC1=O [CTX-1226, Arg-cyclo(Cys-D-Ala-Arg-D-Phe(4-Br)-Arg-D-Trp-Cys)] | 29 | – | – | 71 | – | – | – | – | –
CC(=O)N[C@@H](CCCNC(=N)N)C(=O)N[C@H]1CSSC[C@@H](C(=O)N[C@@H](CCCNC(=N)N)C(=O)N[C@H](Cc2ccccc2)C(N)=O)NC(=O)[C@@H](Cc2c[nH]c3ccccc23)NC(=O)[C@H](CCCNC(=N)N)NC(=O)[C@@H](Cc2ccc(Br)cc2)NC(=O)[C@H](CCCNC(=N)N)NC(=O)[C@@H](C)NC1=O [CTX-1222, Arg-cyclo(Cys-D-Ala-Arg-D-Phe(4-Br)-Arg-D-Trp-Cys)-Arg-D-Phe] (Ac-RC[dA]R[dPhe(4-Br)]R[dW]CR[dF]-NH2; disulfide 2-8 (inferred)) | 38 | 0.1 | 0.33 | 79 | – | – | – | – | –
CC(=O)N[C@@H](CCCNC(=N)N)C(=O)N[C@H]1CSSC[C@@H](C(N)=O)NC(=O)[C@@H](Cc2c[nH]c3ccccc23)NC(=O)[C@H](CCCNC(=N)N)NC(=O)[C@@](C)(Cc2ccccc2)NC(=O)[C@H](CCCNC(=N)N)NC(=O)[C@@H](C)NC1=O [CTX-1279, Arg-cyclo(Cys-D-Ala-Arg-a-Me-D-Phe-Arg-D-Trp-Cys)] (Ac-RC[dA]R[d(αMeF)]R[dW]C-NH2; disulfide 2-8) | 20 | 0.83 | 0.61 | 79 | 72 | – | – | – | –
CC(=O)N[C@@H](CCCNC(=N)N)C(=O)N[C@H]1CSSC[C@@H](C(N)=O)NC(=O)[C@@H](Cc2c[nH]c3ccccc23)NC(=O)[C@H](CCCNC(=N)N)NC(=O)[C@@H](Cc2ccc(Br)cc2)NC(=O)[C@@H]2CCCN2C(=O)[C@@H](C)NC1=O [CTX-1249, Arg-cyclo(Cys-D-Ala-Pro-D-Phe(4-Br)-Arg-D-Trp-Cys)] (Ac-RC[dA]P[dPhe(4-Br)]R[dW]C-NH2; disulfide 2-8) | 1.9 | 5.08 | 0.45 | 22 | 14 | – | – | – | –
CC(=O)N[C@@H](CCCNC(=N)N)C(=O)N[C@H]1CSSC[C@@H](C(N)=O)NC(=O)[C@H](Cc2c[nH]c3ccccc23)NC(=O)[C@H](CCCNC(=N)N)NC(=O)[C@H](Cc2ccc(Br)cc2)NC(=O)[C@H](CCCNC(=N)N)NC(=O)[C@@H](C)NC1=O [CTX-1212] (Ac-RC[dA]R[Phe(4-Br)]RWC-NH2; disulfide 2-8) | 0.1 | 0.07 | 0.07 | 55 | – | 28 | – | – | –
COc1ccc(C[C@H]2NC(=O)[C@H](CCCNC(=N)N)NC(=O)CNC(=O)[C@@H](NC(C)=O)CSSC[C@@H](C(N)=O)NC(=O)[C@H](Cc3ccccc3)NC(=O)[C@H](CCCNC(=N)N)NC2=O)cc1 [CTX-1641, cyclo(Cys-Gly-Arg-D-Tyr(4-OMe)-Arg-Phe-Cys)] (Ac-CGR[dY](Me)RFC-NH2; disulfide 1-7) | 22 | 0.28 | 1.18 | 104 | – | 52 | – | – | –
CCCC[C@H](NC(=O)[C@H](CCCNC(=N)N)NC(C)=O)C(=O)N[C@H]1CSSC[C@@H](C(N)=O)NC(=O)[C@H](Cc2ccccc2)NC(=O)[C@H](CCCNC(=N)N)NC(=O)[C@@H](Cc2ccccc2)NC(=O)[C@H](Cc2c[nH]cn2)NC1=O [CTX-1625, Arg-Nle-cyclo(Cys-His-D-Phe-Arg-Phe-Cys)] (Ac-R[Nle]CH[dF]RFC-NH2; disulfide 3-8) | – | – | – | – | – | – | 101 | – | –
CC(=O)N[C@@H](CCCNC(=N)N)C(=O)N[C@H]1CSSC[C@@H](C(N)=O)NC(=O)[C@@H](Cc2c[nH]c3ccccc23)NC(=O)[C@H](CCCNC(=N)N)NC(=O)[C@@H](Cc2ccc(C(C)(C)C)cc2)NC(=O)[C@H](CCCNC(=N)N)NC(=O)[C@@H](C)NC1=O [CTX-1242, Arg-cyclo(Cys-D-Ala-Arg-D-Phe(4-tBu)-Arg-D-Trp-Cys)] (Ac-RC[dA]R[dPhe(4-tBu)]R[dW]C-NH2; disulfide 2-8 (inferred)) | 2.8 | 0.64 | 0.08 | 5.8 | – | – | – | – | –
CCCC[C@H](NC(=O)[C@H](CCCNC(=N)N)NC(C)=O)C(=O)N[C@H]1CSSC[C@@H](C(N)=O)NC(=O)[C@H](Cc2c[nH]c3ccccc23)NC(=O)[C@H](CCCNC(=N)N)NC(=O)[C@@H](Cc2ccccc2)NC(=O)[C@H](CCCNC(N)=O)NC1=O [CTX-1607, Arg-Nle-cyclo(Cys-Cit-D-Phe-Arg-Trp-Cys)] (Ac-R[Nle]C[Cit][dF]RWC-NH2; disulfide 3-8 (inferred)) | – | – | – | – | – | – | – | 47 | –
CC(=O)N[C@@H](CCCNC(=N)N)C(=O)N[C@H]1CSSC[C@@H](C(N)=O)NC(=O)[C@H](Cc2c[nH]c3ccccc23)NC(=O)[C@H](CCCNC(=N)N)NC(=O)[C@@H](Cc2ccccc2)NC(=O)[C@H](CCCNC(=N)N)NC(=O)CNC1=O [CTX-1293, Arg-cyclo(Cys-Gly-Arg-D-Phe-Arg-Trp-Cys)] (Ac-RCGR[dF]RWC-NH2; disulfide 2-8) | – | – | – | – | – | – | 87 | – | 0.25
CCCC[C@H](NC(=O)[C@H](CCCNC(=N)N)NC(C)=O)C(=O)N[C@H]1CSSC[C@@H](C(N)=O)NC(=O)[C@H](Cc2c[nH]c3ccccc23)NC(=O)[C@H](CCCNC(=N)N)NC(=O)[C@@H](Cc2ccccc2)NC(=O)[C@H](CCCCNC(N)=O)NC1=O [CTX-1618, Arg-Nle-cyclo(Cys-homo-Cit-D-Phe-Arg-Trp-Cys)] (Ac-R[Nle]C[hCit][dF]RWC-NH2; disulfide 3-8 (inferred)) | – | – | – | – | – | – | 94 | – | 1.8
CC(=O)N[C@@H](CCCNC(=N)N)C(=O)N[C@H]1CSSC[C@@H](C(N)=O)NC(=O)[C@@H](Cc2c[nH]c3ccccc23)NC(=O)[C@H](CCCNC(=N)N)NC(=O)[C@@H](Cc2ccccc2)NC(=O)[C@H](CCCNC(N)=O)NC(=O)[C@H](C)NC1=O [CTX-1288, Arg-cyclo(Cys-Ala-Cit-D-Phe-Arg-D-Trp-Cys)] (Ac-RCA[Cit][dF]R[dW]C-NH2; disulfide 2-8) | – | – | – | – | – | – | 87 | – | –
